Patent publication US6495133B1, “Gliocladium roseum strains useful for the control of fungal pathogens in plants” (priority 1998, dated 2002)

What was measured:
[1] = system: Fusarium solani; experiment: Control of fusarium root rot in field pea, field experiments; assay type: in vivo
[2] = system: field pea; experiment: Effect of seeding dates on efficacy of seed treatment, field experiments; assay type: in vivo; for Yield: unit not given here
[3] = system: Rhizoctonia solani; experiment: Control of rhizoctonia root rot in field pea, field experiments; assay type: in vivo
[4] = system: Mycosphaerella pinodes; experiment: Control of mycosphaerella seedling blight/root rot in field pea, growth room experiments; details: Field pea (cv. Radley)
Experimental: In growth room experiments, seeds were planted in wood planting flats (35.5×47.0×9.0 cm) containing soil mixture of 2:1:1 of soil, perlite and peat moss. The soil mixture was pasteurized and mixed at about 2% v/v with artificially infested vermiculite that was moistened with 0.4% malt extract, autoclaved, inoculated with B. solani, and incubated at 20° C. for 7 days prior to the planting. […] For each treatment 100 seeds were planted in each of the 4-replicate flats. The planted flats were placed in a growth room maintained at 20° C. and with a 14-h photoperiod at 350 mol.m^−2.s^−1 light intensity by fluorescent and incandescent lamps. All experiments were arranged in a completely randomized block design. Emergence was counted 7 days after planting and other parameters were assessed after digging out plants 14 to 16 days after planting. Disease severity was rated on a scale of 0 (no visible lesions on lower stem and roots, seedling is well developed) to 9 (death of plant, the seedling died back quickly after emergence).

[5] = system: Sclerotinia sclerotiorum; experiment: Control of sclerotinia rot in field pea, field experiments; assay type: in vivo
[6] = system: Mycosphaerella pinodes; experiment: Control of mycosphaerella seedling blight/root rot in field pea, field experiments; assay type: in vivo
[7] = Optimum seeding, 1995, AC Tamor
[8] = Optimum seeding, 1996, AC Tamor

In the case of `CN(C)C(=S)SSC(=S)N(C)C` [Thiram, thiram], the Emergence ([1]; 1996, AC Tamor) is reported as 76.1 a, the Yield ([1]; 1996, AC Tamor) is reported as 5374 a and the Emergence ([1]; 1996, Radley) is reported as 81.4 a. For the same compound, the Yield ([1]; 1996, Radley) was 3674 a, the Emergence ([1]; 1997, AC Tamor) was 66.2 a and the Yield ([1]; 1997, AC Tamor) was 5600 a. The Emergence ([1]; 1997, Radley) was 65.7 b, the Yield ([1]; 1997, Radley) was 3379 a and the Emergence ([2]; Early seeding, 1995, AC Tamor) was 66.7 a. For the same compound, the Yield ([2]; Early seeding, 1995, AC Tamor) was 4934 a, the Emergence ([2]; Early seeding, 1995, Radley) was 72.4 a and the Yield ([2]; Early seeding, 1995, Radley) was 4566 a. The Emergence ([2]; Early seeding, 1996, AC Tamor) was 81.6 a, the Yield ([2]; Early seeding, 1996, AC Tamor) was 2069 b and the Emergence ([2]; Early seeding, 1996, Radley) was 79.5 a. For the same compound, the Yield ([2]; Early seeding, 1996, Radley) was 1295 a, the Emergence ([2]; Late seeding, 1995, AC Tamor) was 35.8 b and the Yield ([2]; Late seeding, 1995, AC Tamor) was 2454 a. For the same compound, the Emergence ([2]; Late seeding, 1995, Radley) was 55.0 a, the Yield ([2]; Late seeding, 1995, Radley) was 3235 a and the Emergence ([2]; Late seeding, 1996, AC Tamor) was 87.2 a. For the same compound, the Yield ([2]; Late seeding, 1996, AC Tamor) was 2857 a, the Emergence ([2]; Late seeding, 1996, Radley) was 84.7 a and the Yield ([2]; Late seeding, 1996, Radley) was 1706 a. It also gave an Emergence [2, 7] of 62.8 a, a Yield [2, 7] of 3855 a and an Emergence ([2]; Optimum seeding, 1995, Radley) of 81.3 a. The Yield ([2]; Optimum seeding, 1995, Radley) was 2901 a, the Emergence [2, 8] was 75.5 a and the Yield [2, 8] was 3152 a. The Emergence ([2]; Optimum seeding, 1996, Radley) was 84.7 a, the Yield ([2]; Optimum seeding, 1996, Radley) was 1580 a and the Emergence ([3]; 1996, AC Tamor) was 45.5 a. It also gave a Yield ([3]; 1996, AC Tamor) of 2497 a, an Emergence ([3]; 1996, Radley) of 47.4 a and a Yield ([3]; 1996, Radley) of 1589 a. The “increased emergence by” value ([3]; 1996, average of two varieties) was 2%, the “reduced yield by” value ([3]; 1996, average of two varieties) was 12.5% and the effect on emergence [3]; 1997 was “increased emergence significantly”. The effect on yield [3]; 1997 was “did not increase the yield”, the Emergence ([3]; 1997, AC Tamor) was 76.0 a and the Yield ([3]; 1997, AC Tamor) was 5367 a. For the same compound, the Emergence ([3]; 1997, Radley) was 58.6 b, the Yield ([3]; 1997, Radley) was 4666 a and the Dry wt. [4] was 0.32 a g/plant. For the same compound, the Emergence [4] was 67.5 a %, the Fresh wt. [4] was 3.1 a g/plant and the Root rot severity [4] was 2.3 a 0-9. It also gave an Emergence ([5]; 1996, AC Tamor) of 41.8 a, a Yield ([5]; 1996, AC Tamor) of 4327 a and an Emergence ([5]; 1996, Radley) of 48.9 a. For the same compound, the Yield ([5]; 1996, Radley) was 2598 a, the Emergence ([5]; 1997, AC Tamor) was 49.7 a and the Yield ([5]; 1997, AC Tamor) was 5402 b. For the same compound, the Emergence ([5]; 1997, Radley) was 50.5 a, the Yield ([5]; 1997, Radley) was 5049 a and the Emergence ([6]; 1996, AC Tamor) was 76.3 a. For the same compound, the Yield ([6]; 1996, AC Tamor) was 2140 ab, the Emergence ([6]; 1996, Radley) was 84.5 a and the Yield ([6]; 1996, Radley) was 1623 a. The Emergence ([6]; 1997, AC Tamor) was 80.0 a, the Yield ([6]; 1997, AC Tamor) was 5645 a and the Emergence ([6]; 1997, Radley) was 80.2 a. For the same compound, the Yield ([6]; 1997, Radley) was 3328 a.
